The source of these data is article PMC6688628, “N-Substituted Pyrrole Derivative 12m Inhibits HIV-1 Entry by Targeting Gp41 of HIV-1 Envelope Glycoprotein” (Frontiers in Pharmacology, 2019).

Read-outs that look alike come from different tables or passages of the source. Where only a bound is given, the exact number is not on record here.

Assay [1] relates to HIV-1. The arrangement: method as in Jiang et al., 2004. As to conditions: inhibition of HIV-1 entry; ref Jiang et al., 2004; cited from earlier work.
Assay [2] concerns HIV-1 NL4-3(36G)N42T,N43K. As to conditions: T20-resistant NL4-3(36G)N42T,N43K; p24 ELISA; mean ± SD.
Assay [3] deals with HIV-1 NL4-3(36G)V38A. As to conditions: T20-resistant NL4-3(36G)V38A; p24 ELISA; mean ± SD.
Assay [4] deals with HIV-1 BCF02. As to the kind of experiment: microbe, parasite or virus in culture. It counts as cell-based. How it is done:
(§1) The HIV-1 replication-inhibiting activity of compounds was determined as previously described ([Li et al., 2013]). Briefly, 1 × 10^4 TZM-bl or MT-2 cells were infected with primary HIV-1 strains or T20-resistant HIV-1 strains (100 TCID50) in 200 µl of RPMI-1640 medium containing 10% FBS in the presence or absence of compounds at graded concentrations for 12 h. The culture medium was replaced with fresh medium without the compounds. After culture for an additional 48 h, supernatants or cells were collected from each well. For the primary HIV-1 strains, the cells were treated using a luciferase kit. Briefly, the cells were lysed with the lysis reagent and were transferred into a 96-well flat-bottom luminometer plate after three washes with phosphate-buffered saline (PBS) (Costar Corning Inc., Corning, NY), followed by addition of the luciferase substrate included in the luciferase kit (Promega Corp., Madison, WI). The luciferase activity was measured immediately by an Ultra 384 microplate reader (Tecan, Research Triangle Park, NC). T20 was used as a positive control. For the T20-resistant HIV-1 strains, 100 µl of culture supernatant was mixed with 100 µl of 5% Triton X-100. Then, those virus lysates were assayed for p24 antigen by enzyme linked immunosorbent assay (ELISA) as previously described ([Li et al., 2010]). Absorbance at 450 nm was recorded in an ELISA reader (Ultra 384, Tecan). EC50 values were calculated using the computer program CalcuSyn ([Chou and Talalay, 1984]).

Assay [5] has as its system HIV-1 93/BR/020. The experiment in a line: microbe, parasite or virus in culture. It counts as cell-based. The procedure:
as §1

Assay [6] relates to HIV-1 US4 (GS 007). As to the kind of experiment: microbe, parasite or virus in culture. It counts as cell-based. The procedure:
as §1

The test system of assay [7] is HIV-1 NL4-3(36G)V38A,N42T. As to conditions: T20-resistant NL4-3(36G)V38A,N42T; p24 ELISA; mean ± SD.
Assay [8] deals with HIV-1 NL4-3(36G)V38A,N42D. As to conditions: T20-resistant NL4-3(36G)V38A,N42D; p24 ELISA; mean ± SD.
For assay [9], the system named is HIV-1 NL4-3(36G)V38E,N42S. As to conditions: T20-resistant NL4-3(36G)V38E,N42S; p24 ELISA; mean ± SD.
For assay [10], the system named is R5 and X4 HIV-1 strains (Env pseudotyped viruses). It counts as cell-based.
Assay [11] relates to HIV-1 92UG029. As to the kind of experiment: Anti-HIV-1 activity, primary strain 92UG029. It counts as cell-based. As to conditions: luciferase readout, mean ± SD.
The test system of assay [12] is HIV-1JR-FL Env mutant K574A pseudovirus. It counts as cell-based. As to conditions: compared with wild-type HIV-1JR-FL pseudovirus.
The test system of assay [13] is HIV-1 NL4-3D36G. It counts as cell-based. As to conditions: T20-sensitive parent strain, p24 ELISA, mean ± SD.

In the case of `O=C(O)c1cc(-n2cccc2)ccc1Cl` [NB-64], the “effective concentration for 50% inhibition (EC50)” value in assay [1] is “on the µM level”.
As to Enfuvirtide, the IC50 in [2] was greater than 2 µM; in [3], 0.279 ± 0.082 µM; in [4] (BCF02, 12 h) it was 0.05 ± 0.022 µM; in assay [6] (US4 (GS 007, 12 h)), 0.059 ± 0.01 µM; in assay [7], greater than 2 µM; in assay [8] it was 0.895 ± 0.31 µM. This compound returned an IC50 in assay [9] greater than 2 µM. Also, the IC90 in assay [2] was greater than 2 µM; in assay [3], greater than 2 µM; in [4] (BCF02, 12 h), 0.502 ± 0.338 µM; in assay [5] (93/BR/020, 12 h) it was 0.313 ± 0.022 µM; in [6] (US4 (GS 007, 12 h)), 1.43 ± 0.443 µM; in assay [7], greater than 2 µM. Further, the IC90 in [8] and in [9] was greater than 2 µM throughout. Further, in assay [10] (positive controls, single-cycle pseudovirus infection), the “inhibitory activity against the R5 and X4 HIV-1 strains” value is “strong inhibitory activity”.
Take `c1cc(CN2CCCNCCNCCCNCC2)ccc1CN1CCCNCCNCCCNCC1` [AMD3100]: the “inhibitory activity against the R5 and X4 HIV-1 strains” value in [10] is recorded as “strong inhibitory activity”.
For the compound `COc1ccc(S(=O)(=O)[O-])cc1N=Nc1c(S(=O)(=O)[O-])cc2cc(Nc3nc(Nc4ccccc4)nc(Nc4cc(C)c(N=Nc5cc(S(=O)(=O)[O-])cc6cc(S(=O)(=O)[O-])cc(O)c56)cc4OC)n3)ccc2c1O.[Na+].[Na+].[Na+].[Na+]` [ADS-J1], the IC50 in assay [2] was 0.61 ± 0.25 µM; in [11], 20.6 ± 5.29 µM; in assay [3], 0.16 ± 0.04 µM; in [4] (primary strain BCF02, luciferase readout, mean ± SD, read-out: IC50), 1.45 ± 0.26 µM; in [5] (primary strain 93/BR/020, luciferase readout, mean ± SD), 13 ± 3.49 µM; in [6] (primary strain US4 (GS 007), luciferase readout, mean ± SD, read-out: IC50) it was 4.62 ± 0.76 µM. The IC50 came out at 0.62 ± 0.16 µM in assay [7], 0.65 ± 0.18 µM in assay [8], 0.11 ± 0.01 µM in assay [9] and 0.94 ± 0.03 µM in [13]. Further, the IC90 amounted to 4.24 ± 1.21 µM in [2]; 32.1 ± 6.71 µM in assay [11]; 0.4 ± 0.05 µM in [3]; 3.06 ± 0.42 µM in [4] (primary strain BCF02, luciferase readout, mean ± SD, read-out: IC90); 26.9 ± 4.3 µM in assay [5] (primary strain 93/BR/020, luciferase readout, mean ± SD, read-out: IC90); 9.9 ± 1.44 µM in assay [6] (primary strain US4 (GS 007), luciferase readout, mean ± SD, read-out: IC90). Also, the IC90 in assay [7] worked out at 8.39 ± 1.55 µM; in assay [8], 8.2 ± 2.65 µM; in [9], 0.33 ± 0.01 µM; in [13], 2.03 ± 0.2 µM. Moreover, the “inhibitory activity against K574A mutant pseudovirus” value in assay [12] is given as “exerted inhibitory activity”.
